The source of these data is patent US7470715B2, “Estrogen modulators” (Pfizer Inc., priority 2005, dated 2008).

In assay [1] the target is T1, ligand binding domain of the estrogen receptor alpha chain (ERαLBD) (Homo sapiens, UniProt P03372).
T1 construct: expressed in transfected cells; host or cells: Huh-7 human hepatoma cells, transient transfection with FuGENE 6
T1 sequence (P03372 311-547 limits assumed): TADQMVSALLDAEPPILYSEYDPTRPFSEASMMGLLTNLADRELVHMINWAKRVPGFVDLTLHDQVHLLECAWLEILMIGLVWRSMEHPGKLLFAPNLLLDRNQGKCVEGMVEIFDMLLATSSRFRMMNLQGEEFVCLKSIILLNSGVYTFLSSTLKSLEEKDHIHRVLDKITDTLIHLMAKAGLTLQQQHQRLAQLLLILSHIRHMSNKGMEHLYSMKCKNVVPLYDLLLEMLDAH
As to the kind of experiment: ER agonist cell assay (ERα), Huh-7 co-transfection, luciferase. The following applies: for EC50: Huh-7 cells co-transfected with pG5luc and ERαLBD, overnight incubation, luciferase; for ERα % of Max E2 Response: percent of the maximum estradiol fold change, Huh-7, pG5luc and ERαLBD. Type of assay: cell-based. Here is the method:
(§1) The compounds ability to mimic the effects of estrogen on the estrogen receptor were determined in a whole cell assay as described immediately below.
(§2) Experimental Procedure for ER Agonist Cell Assay
(§3) • Cell line and plasmids: The human hepatoma cell line Huh-7 was used for co-transfections. Cells were maintained in culture medium and split when they reached 80-90% confluency. Three plasmids were routinely used in the assay. pG5luc contained the firefly luciferase gene and was obtained from Promega. […] Cell Culture Media and Reagents:
(§4) Culture medium: DMEM (phenol red free), 10% charcoal treated HyClone serum, 1% L-glutamine, and 1% penicillin/streptomycin
(§5) Transfection medium: DMEM (phenol red free) and 10% charcoal treated HyClone serum
(§6) Luciferase reagents: Dual-Glo Luciferase Kit (Promega cat #E2980) was used for determination of luciferase activity.
(§7) Transient transfections were preformed using the lipophilic reagent FuGENE 6 (Roche). Cells were split and seeded at 7.2×10^6/150 cm^2 flask in 20 mL of transfection medium. 5-6 hrs later cells were co-transfected with either pG5luc and ERαLBD or pG5luc and ERβLBD(pm418). Transfected cells grew overnight and were then used the next day.
(§8) Cells transfected 24 hrs earlier were harvested, counted, and seeded in wells containing compound at a density of 1×10^4 cells/well. […] Cells were incubated overnight at 37° C. and 5% CO2 in the presence of compound. The following day medium was aspirated from the wells and 100 ul of Dual-Glo™ Luciferase Reagent were added to each well. Plates were incubated at room temperature for 20 minutes and firefly luminescence was measured on a luminometer. Next, 50 ul of Dual-Gbo™ Stop & Glo® Reagent were added to each well and after 20 minutes at room temperature the Renilla luminescence was measured on a luminometer. Values from each well were normalized by dividing the firefly luminescence by the Renilla luminescence. Estradiol was used as the standard and run in each assay. The fold induction over background for each compound was compared to the maximum fold induction for estradiol in each assay. […] Those compounds that were not tested, or the data was unavailable are marked as NT.

The target in assay [2] is ligand binding domain of the estrogen receptor beta chain (ERβLBD) that contained a point mutation at amino acid residue 418 (pm418) (Homo sapiens, UniProt Q92731). The assay can be described thus: ER agonist cell assay (ERβ), Huh-7 co-transfection, luciferase. Type of assay: cell-based. The following applies: for EC50: Huh-7 cells co-transfected with pG5luc and ERβLBD(pm418), overnight incubation, luciferase; for ERβ % of Max E2 Response: percent of the maximum estradiol fold change, Huh-7, pG5luc and ERβLBD(pm418). Here is the method:
as §1, §2, §3, §4, §5, §6, §7, §8

SMILES strings stand for the structures.

For the compound `Oc1ccc(-c2noc(C3(c4nnc(-c5cccc(O)c5)o4)CC3)c2-c2ccccc2)cc1` [Example 125, 3-(5-{1-[3-(4-hydroxyphenyl)-4-phenylisoxazol-5-yl]cyclopropyl}-1,3,4-oxadiazol-2-yl)phenol], in assay [1], the EC50 (as a rule, the concentration needed to bring the measured effect to its halfway point) worked out at 419 nM and the “ERα % of Max E2 Response” value is 22.1%. Also, in assay [2], the EC50 was more than 10000 nM and the “ERβ % of Max E2 Response” value was more than 0.535%.

As to `Oc1ccc(-c2noc(C3(CN4CCOCC4)CC3)c2-c2ccccc2)cc1` [Example 31, 4-[5-(1-Morpholin-4-ylmethyl-cyclopropyl)-4-phenyl-isoxazol-3-yl]-phenol], in assay [1], the EC50 stood at 26.9 nM and the “ERα % of Max E2 Response” value stood at 30%. Besides, in assay [2], the EC50 came out at 151 nM and the “ERβ % of Max E2 Response” value is on record as 1.35%.

On to `Oc1ccc(-c2noc(C3(CNc4cccc(C(F)(F)F)c4)CC3)c2-c2ccccc2)cc1` [Example 29, 4-(4-Phenyl-5-{1-[(3-trifluoromethyl-phenylamino)-methyl]-cyclopropyl}-isoxazol-3-yl)-phenol], for which the “ERα % of Max E2 Response” value in assay [1] came out at 11.4%. Further, in assay [2], the “ERβ % of Max E2 Response” value worked out at 0.601%.

Turning to `O=C(OCc1ccccc1)C1(c2onc(-c3ccc(O)cc3)c2-c2ccccc2)CC1` [Example 92, 1-[3-(4-Hydroxy-phenyl)-4-phenyl-isoxazol-5-yl]-cyclopropanecarboxylic acid benzyl ester], in assay [1], the EC50 was 57.2 nM and the “ERα % of Max E2 Response” value is 19.7%. Moreover, in assay [2], the EC50 is more than 10000 nM and the “ERβ % of Max E2 Response” value is given as more than 1.04%.

For the compound `CC(C)OCC1(c2onc(-c3ccc(O)cc3)c2-c2ccccc2)CC1` [Example 3, 4-[5-(1-Isopropoxymethyl-cyclopropyl)-4-phenyl-isoxazol-3-yl]-phenol], in assay [1], the EC50 worked out at 97.1 nM and the “ERα % of Max E2 Response” value stood at 32.2%. In assay [2], a half-maximal effect (EC50) was put at 568 nM and the “ERβ % of Max E2 Response” value is 1.32%.

Consider `COCCOC(=O)C1(c2onc(-c3ccc(O)cc3)c2-c2ccccc2)CC1` [Example 88, 1-[3-(4-Hydroxy-phenyl)-4-phenyl-isoxazol-5-yl]-cyclopropanecarboxylic acid 2-methoxy-ethyl ester], for which, in assay [1], a half-maximal response (EC50) required 29.4 nM and the “ERα % of Max E2 Response” value amounted to 29.2%. Further, in assay [2], the EC50 was more than 10000 nM and the “ERβ % of Max E2 Response” value was more than 3.41%.

As for `N#CCC1(c2onc(-c3ccc(O)cc3)c2-c2ccccc2)CC1` [Example 42, {1-[3-(4-Hydroxy-phenyl)-4-phenyl-isoxazol-5-yl]-cyclopropyl}-acetonitrile], in assay [1], a half-maximal response (EC50) required 37.7 nM and the “ERα % of Max E2 Response” value is given as 51.7%. Also, in assay [2], the EC50 worked out at 198 nM and the “ERβ % of Max E2 Response” value came out at 6.17%.

Consider `CCCC(=O)OCC1(c2onc(-c3ccc(O)cc3)c2-c2ccccc2)CC1` [Example 58], for which, in assay [1], a half-maximal effect (EC50) was put at 137 nM and the “ERα % of Max E2 Response” value turned out to be 59.9%. Besides, in assay [2], a half-maximal effect (EC50) was put at 97.9 nM and the “ERβ % of Max E2 Response” value was 92%.

Turning to `COc1cccc(F)c1OCC1(c2onc(-c3ccc(O)cc3)c2-c2ccccc2)CC1` [Example 7, 4-{5-[1-(2-Fluoro-6-methoxy-phenoxymethyl)-cyclopropyl]-4-phenyl-isoxazol-3-yl}-phenol], in assay [1], the half-maximal effective concentration (EC50) was 208 nM and the “ERα % of Max E2 Response” value was found to be 17.2%. Besides, in assay [2], the EC50 was more than 10000 nM and the “ERβ % of Max E2 Response” value is more than 0.485%.

Turning to `CC(C)(C)COC(=O)C1(c2onc(-c3ccc(O)cc3)c2-c2ccccc2)CC1` [Example 93, 1-[3-(4-Hydroxy-phenyl)-4-phenyl-isoxazol-5-yl]-cyclopropanecarboxylic acid 2,2-dimethyl-propyl ester], in assay [1], the EC50 stood at 33.8 nM and the “ERα % of Max E2 Response” value was 20.4%. In assay [2], the EC50 is more than 10000 nM and the “ERβ % of Max E2 Response” value is recorded as more than 0.813%.

Turning to `CCC(=O)OCC1(c2onc(-c3ccc(O)cc3)c2-c2ccccc2)CC1` [Example 57], in assay [1], the EC50 was 245 nM and the “ERα % of Max E2 Response” value turned out to be 71.9%. Further, in assay [2], a half-maximal response (EC50) required 137 nM and the “ERβ % of Max E2 Response” value is given as 112%.

Consider `COCOCC1(c2onc(-c3ccc(O)cc3)c2-c2ccccc2)CC1` [Example 10, 4-[5-(1-Methoxymethoxymethyl-cyclopropyl)-4-phenyl-isoxazol-3-yl]-phenol], for which, in assay [1], a half-maximal response (EC50) required 17.7 nM and the “ERα % of Max E2 Response” value is recorded as 15.1%. Further, in assay [2], the EC50 came out at 197 nM and the “ERβ % of Max E2 Response” value is recorded as 1.18%.

Consider `CC(C)CC(=O)OCC1(c2onc(-c3ccc(O)cc3)c2-c2ccccc2)CC1` [Example 55], for which, in assay [1], a half-maximal response (EC50) required 5.7 nM and the “ERα % of Max E2 Response” value is listed as 55.8%. Moreover, in assay [2], the EC50 was 23.6 nM and the “ERβ % of Max E2 Response” value turned out to be 32.6%.

For the compound `COc1cccc(-c2nnc(C3(c4onc(-c5ccc(O)cc5)c4-c4ccccc4)CC3)o2)c1` [Example 123, 4-(5-{1-[5-(3-methoxyphenyl)-1,3,4-oxadiazol-2-yl]cyclopropyl}-4-phenylisoxazol-3-yl)phenol], in assay [1], the EC50 amounted to 46.9 nM and the “ERα % of Max E2 Response” value is recorded as 35.9%. In addition, in assay [2], the EC50 is more than 10000 nM and the “ERβ % of Max E2 Response” value is more than 0.658%.

Consider `COCC1(c2onc(-c3ccc(O)cc3)c2-c2ccccc2)CC1` [Example 8, 4-[5-(1-Methoxymethyl-cyclopropyl)-4-phenyl-isoxazol-3-yl]-phenol], for which, in assay [1], the response was half-maximal at 25.8 nM (EC50) and the “ERα % of Max E2 Response” value was 40.4%. Moreover, in assay [2], the EC50 is 68.8 nM and the “ERβ % of Max E2 Response” value was 3.65%.

For the compound `CC[C@@H](NCC1(c2onc(-c3ccc(O)cc3)c2-c2ccccc2)CC1)c1ccccc1` [Example 26, 4-[4-Phenyl-5-(1-{[(1R)-1-phenyl-propylamino]-methyl}-cyclopropyl)-isoxazol-3-yl]-phenol], in assay [1], a half-maximal response (EC50) required 66 nM and the “ERα % of Max E2 Response” value was 20.9%. In addition, in assay [2], the “ERβ % of Max E2 Response” value was determined as 1.03%.

Take `Oc1ccc(-c2noc(C3(C(O)c4ccccc4)CC3)c2-c2ccccc2)cc1` (racemic) [Example 16, (±)-4-{5-[1-(Hydroxy-phenyl-methyl)-cyclopropyl]-4-phenyl-isoxazol-3-yl}-phenol]: in assay [1], the midpoint of the response, the EC50, lay at 44.3 nM and the “ERα % of Max E2 Response” value worked out at 63.2%. Besides, the “ERβ % of Max E2 Response” value in assay [2] was found to be 2.37%.

As for `CCOC(=O)C1(c2onc(-c3ccc(O)c(F)c3)c2-c2ccccc2)CC1` [Example 97, 1-[3-(3-Fluoro-4-hydroxy-phenyl)-4-phenyl-isoxazol-5-yl]-cyclopropanecarboxylic acid ethyl ester], the “ERα % of Max E2 Response” value in assay [1] stood at 19.7%. Besides, the “ERβ % of Max E2 Response” value in assay [2] turned out to be 1.08%.

`OCC1(c2onc(-c3ccc(O)c(F)c3)c2-c2ccccc2)CC1` [Example 98, 2-Fluoro-4-[5-(1-hydroxymethyl-cyclopropyl)-4-phenyl-isoxazol-3-yl]-phenol]: in assay [1], the half-maximal effective concentration (EC50) came to 985 nM and the “ERα % of Max E2 Response” value was 46%. Also, in assay [2], the EC50 came to 799 nM and the “ERβ % of Max E2 Response” value amounted to 36.8%.

As to `Oc1ccc(-c2noc(C3(c4nnc(-c5ccc(O)cc5O)o4)CC3)c2-c2ccccc2)cc1` [Example 118, 4-(5-{1-[3-(4-hydroxyphenyl)-4-phenylisoxazol-5-yl]cyclopropyl}-1,3,4-oxadiazol-2-yl)benzene-1,3-diol], in assay [1], the EC50 is 25.1 nM and the “ERα % of Max E2 Response” value is on record as 15%. In assay [2], the 50% effective concentration (EC50) was more than 10000 nM and the “ERβ % of Max E2 Response” value is more than 0.789%.

For the compound `Oc1ccc(-c2noc(C3(COCC(F)(F)F)CC3)c2-c2ccccc2)cc1` [Example 11, 4-{4-Phenyl-5-[1-(2,2,2-trifluoro-ethoxymethyl)-cyclopropyl]-isoxazol-3-yl}-phenol], in assay [1], a half-maximal effect (EC50) was put at 171 nM and the “ERα % of Max E2 Response” value is reported as 23.4%. Further, in assay [2], a half-maximal effect (EC50) was put at 14.7 nM and the “ERβ % of Max E2 Response” value worked out at 1.98%.

As for `COc1ncccc1OCC1(c2onc(-c3ccc(O)cc3)c2-c2ccccc2)CC1` [Example 13, 4-{5-[1-(2-Methoxy-pyridin-3-yloxymethyl)-cyclopropyl]-4-phenyl-isoxazol-3-yl}-phenol], the “ERα % of Max E2 Response” value in assay [1] came to 19%. In assay [2], the “ERβ % of Max E2 Response” value turned out to be 0.552%.
